Consider 21 compounds from patent publication US20240317706A1, “COMPOUNDS THAT MEDIATE PROTEIN DEGRADATION AND METHODS OF USE THEREOF” (Monte Rosa Therapeutics, Inc., priority 2021, published 2024).

In general, Dmax refers to the greatest extent of degradation seen. A high value points to a fuller loss of target. Usually Ki stands for the equilibrium dissociation constant of an inhibitor or competing ligand from its target.

Assay [1] concerns the target T1, CDK2 (Homo sapiens, UniProt P24941).
T1 construct: HEK293 clonal lines with CRISPR KI HiBiT tag on CDK2 proteins; host or cells: HEK293 clonal line, CRISPR knock-in HiBiT-CDK2, stably expressing LgBiT
Briefly: NanoBiT assay (CDK2 degradation). The conditions noted are these: 24 hours; for Dmax: HEK293, HEK293 clonal line with CRISPR KI HiBiT tag on CDK2, Endurazine live cell substrate. The class given is cell-based. The method, then:
HEK293 clonal lines with CRISPR KI HiBiT tag on either CDK2 proteins and stably expressing LgBiT protein were obtained from Promega (Madison, WI). Cells were plated at 5000 cells per well using Multiflo (BioTek) in 384-well white solid bottom plates (Corning, 3570BC) in 25 ul volume in DMEM media (DMEM, high glucose, HEPES, no phenol red (ThermoFisher Scientific, 21063029)) containing 10% FBS (Corning, 35-075-CV), 1% Penicillin/Streptomycin ((ThermoFisher Scientific, 15140-122), and 1% Endurazine (Nano-Glo Endurazine Live Cell Substrate (Promega, N2571)). Cells were incubated for 16 hours at 37 C, 5% CO2. 75 nL of a compound at 30 μM were dosed into the plate using an Echo® 650 liquid handler (Labcyte). Cells were incubated at 37° C., 5% CO2 for 24 hours and then signal was read on a Pherastar FSX using “LUM plus” optic module.
Analysis was performed in Scinamic (Scinamic, Cambridge, MA). Luminescence response (R) was calculated by the formula: response=100*(S−N)/(P−N) where S is the signal of the well, N and P the mean negative and positive control values respectively of the same plate. The luminescence response was then fitted in Scinamic using a 3-parameter agonist logistic fit (hillslope=1, EC50>0, top/bottom unconstrained).

The target in assay [2] is CRBN-DDB1 (Homo sapiens, UniProt Q96SW2). Put plainly: Compound binding to CRBN by HTRF assay. The note with it: CRBN-DDB1 2.5 nM, Cy5-Thalidomide 100 nM, 30 min; Ki from geometric mean IC50 by Cheng-Prustoff transformation. The method, then:
Compound activity was monitored in a Homogenous Time-Resolved Fluorescence (HTRF) assay using 1-[5-({2-[2-(2-{[2-(2,6-dioxopiperidin-3-yl)-1,3-dioxo-2,3-dihydro-1H-isoindol-4-yl]oxy}acetamido)ethoxy]ethyl}carbamoyl)pentyl]-3,3-dimethyl-2-[(1E,3E)-5-[(2E)-1,3,3-trimethyl-5-sulfo-2,3-dihydro-1H-indol-2-ylidene]penta-1,3-dien-1-yl]-3H-indol-1-ium-5-sulfonate as a fluorescent probe. Biochemical assays were conducted in Greiner white 384 well HiBase plates (Cat. No 784075-25) in 10 μL total volume. A one pot detection solution of CRBN-DDB1 (2.5 nM), Anti-His Terbium Cryptate Gold (1×, PerkinElmer Cat. #: 61HI2TLB), and Cy5-Thalidomide (100 nM, Tenova Cat.: T52461) was prepared in 20 mM HEPES, 20 mM NaCl, 0.2 mM TCEP, 0.2 mM EDTA, and 0.005% Tween20 was dispensed to each assay plate. Compounds were stored in dry, ambient temperatures at 10 mM. A 10-point, 1:3 dilution series was prepared from 10 mM stock concentrations in Echo-compatible LDV plates. 10 nL of each compound dilution series was dispensed into assays wells using an Echo 650 (Labcyte inc. USA). 10 nL of 10 mM Lenalidomide was transferred into the active-control wells for the assay and 10 nL of DMSO was transferred into the neutral-control wells. The assay was then allowed to incubate for 30 min at ambient temperature after transferring compound. Plate measurements were taken on a Pherastar FSX (BMG Labtech, Germany) using the HTRF Red filter (Ex. 337 nm, em1: 620 nm, em2: 665 nm) (Flashes: 50, Integration time: 60-400 us, Z-height: 10 mm, Ratio-multiplier: 10,000). The HTRF signal was then subsequently normalized to the neutral and active controls. Analysis and IC50 values were derived using KNIME analytics (KNIME Zurich) transformation and fitting within Collaborative Drug Discovery (Collaborative Drug Discovery USA). Ki was derived from the geometric mean of the IC50 values using the Cheng-Prustoff transformation.
A general note: Time-resolved FRET reads energy transfer from a long-lived donor to a nearby acceptor.

CRBN-DDB1, sequence (Q96SW2 whole entry): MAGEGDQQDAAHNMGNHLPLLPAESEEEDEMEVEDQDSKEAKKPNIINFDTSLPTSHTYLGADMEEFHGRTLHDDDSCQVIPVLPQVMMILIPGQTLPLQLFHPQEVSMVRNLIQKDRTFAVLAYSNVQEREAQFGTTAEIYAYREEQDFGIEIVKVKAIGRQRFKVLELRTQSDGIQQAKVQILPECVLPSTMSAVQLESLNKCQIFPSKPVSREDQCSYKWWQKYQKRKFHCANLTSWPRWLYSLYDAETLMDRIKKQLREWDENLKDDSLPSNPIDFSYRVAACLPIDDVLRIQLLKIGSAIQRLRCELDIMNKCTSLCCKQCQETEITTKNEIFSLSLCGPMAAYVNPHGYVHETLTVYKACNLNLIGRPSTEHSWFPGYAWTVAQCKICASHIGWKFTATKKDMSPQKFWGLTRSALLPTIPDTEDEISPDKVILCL
CRBN-DDB1, sequence (Q16531 whole entry partner): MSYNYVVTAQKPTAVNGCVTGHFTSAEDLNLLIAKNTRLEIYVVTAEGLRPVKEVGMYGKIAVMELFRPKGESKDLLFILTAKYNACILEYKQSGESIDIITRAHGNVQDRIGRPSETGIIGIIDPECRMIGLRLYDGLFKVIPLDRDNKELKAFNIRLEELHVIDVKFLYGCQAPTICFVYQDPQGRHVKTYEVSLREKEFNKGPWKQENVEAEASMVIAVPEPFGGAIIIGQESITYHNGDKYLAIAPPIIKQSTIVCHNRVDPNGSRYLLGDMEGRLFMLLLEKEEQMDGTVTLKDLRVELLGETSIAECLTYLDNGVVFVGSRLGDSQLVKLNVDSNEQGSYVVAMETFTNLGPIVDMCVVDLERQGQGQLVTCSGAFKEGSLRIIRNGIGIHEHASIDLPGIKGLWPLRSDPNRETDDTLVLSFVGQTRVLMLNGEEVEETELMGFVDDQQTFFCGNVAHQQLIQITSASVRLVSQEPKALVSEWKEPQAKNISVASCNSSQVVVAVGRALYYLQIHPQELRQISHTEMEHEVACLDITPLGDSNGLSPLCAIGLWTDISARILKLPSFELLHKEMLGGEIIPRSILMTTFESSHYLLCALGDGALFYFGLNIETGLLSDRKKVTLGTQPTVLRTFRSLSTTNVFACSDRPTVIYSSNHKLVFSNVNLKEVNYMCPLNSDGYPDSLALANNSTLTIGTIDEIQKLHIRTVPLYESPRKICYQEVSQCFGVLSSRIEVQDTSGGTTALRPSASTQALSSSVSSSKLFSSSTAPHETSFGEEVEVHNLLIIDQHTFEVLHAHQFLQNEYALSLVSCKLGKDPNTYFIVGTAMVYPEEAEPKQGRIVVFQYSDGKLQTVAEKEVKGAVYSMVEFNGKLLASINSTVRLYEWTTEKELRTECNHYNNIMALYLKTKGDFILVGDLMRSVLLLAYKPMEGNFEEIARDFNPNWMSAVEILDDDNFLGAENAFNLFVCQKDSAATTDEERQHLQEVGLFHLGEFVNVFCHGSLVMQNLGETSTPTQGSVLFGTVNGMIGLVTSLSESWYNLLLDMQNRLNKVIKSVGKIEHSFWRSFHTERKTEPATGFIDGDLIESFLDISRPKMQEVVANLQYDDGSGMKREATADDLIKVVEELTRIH

`O=C1CCC(N2Cc3ccc(CNC(=O)OC(c4ccccc4)C4CC5(CCC5)C4)cc3C2=O)C(=O)N1` (stereo not drawn) [Compound 107, phenyl(spiro[3.3]heptan-2-yl)methyl ((2-(2,6-dioxopiperidin-3-yl)-3-oxoisoindolin-5-yl)methyl)carbamate] displayed a Dmax in assay [1] of 50 to 80%. Moreover, the inhibitory constant (Ki) in assay [2] is 100 to 1000 nM.

As to `O=C1CCC(N2Cc3ccc(CNc4nnc(C5CCCCC5)o4)cc3C2=O)C(=O)N1` (stereo not drawn) [Compound 141, 3-(6-(((5-cyclohexyl-1,3,4-oxadiazol-2-yl)amino)methyl)-1-oxoisoindolin-2-yl)piperidine-2,6-dione], the Dmax in assay [1] lay in the range of 10 to 50%. The same compound came in with a Ki in assay [2] of 100 to 1000 nM.

The compound `O=C1CCC(N2Cc3ccc(CNC(=O)OCC4CC5(C4)CC(F)(F)C5)cc3C2=O)C(=O)N1` (stereo not drawn) [Compound 125, (6,6-difluorospiro[3.3]heptan-2-yl)methyl ((2-(2,6-dioxopiperidin-3-yl)-3-oxoisoindolin-5-yl)methyl)carbamate] showed a Dmax in assay [1] of 10 to 50%. The Ki in assay [2] was in the range of 100 to 1000 nM.

For the compound `CS(=O)(=O)N1CC(COC(=O)NCc2ccc3c(c2)C(=O)N(C2CCC(=O)NC2=O)C3)C1` (stereo not drawn) [Compound 91, (1-methanesulfonylazetidin-3-yl)methyl N-{[2-(2,6-dioxopiperidin-3-yl)-3-oxo-2,3-dihydro-1H-isoindol-5-yl]methyl}carbamate], the greatest degradation seen (Dmax) in assay [1] was ≤ 10%. In assay [2], this compound displayed a Ki of 100 to 1000 nM.

Regarding `O=C1CCC(N2Cc3ccc(CNc4nnc(C5CC6(CCC6)C5)o4)c(O)c3C2=O)C(=O)N1` (stereo not drawn) [Compound 135, 3-(7-hydroxy-1-oxo-6-(((5-(spiro[3.3]heptan-2-yl)-1,3,4-oxadiazol-2-yl)amino)methyl)isoindolin-2-yl)piperidine-2,6-dione], in assay [1], the Dmax fell in the range of 50 to 80%. Besides, the Ki in assay [2] fell in the range of 100 to 1000 nM.

With `O=C1CCC(N2Cc3c(Cl)cc(CNc4nnc(C5CC6(CCC6)C5)o4)cc3C2=O)C(=O)N1` (stereo not drawn) [Compound 140, 3-(4-chloro-1-oxo-6-(((5-(spiro[3.3]heptan-2-yl)-1,3,4-oxadiazol-2-yl)amino)methyl)isoindolin-2-yl)piperidine-2,6-dione], the Dmax in assay [1] is 50 to 80%. Besides, in assay [2], the Ki fell in the range of 100 to 1000 nM.

In assay [1], `O=C1CCC(N2Cc3c(Cl)cc(CNC(=O)OCC4CC5(CCC5)C4)cc3C2=O)C(=O)N1` (stereo not drawn) [Compound 104, spiro[3.3]heptan-2-ylmethyl ((7-chloro-2-(2,6-dioxopiperidin-3-yl)-3-oxoisoindolin-5-yl)methyl)carbamate] showed a Dmax of 50 to 80%. Also, the inhibitory constant (Ki) in assay [2] is ≤ 100 nM.

On to `O=C1CCC(N2Cc3ccc(CNC(=O)OC4CCC5(CCC5)CC4)cc3C2=O)C(=O)N1` (stereo not drawn) [Compound 133, spiro[3.5]nonan-7-yl ((2-(2,6-dioxopiperidin-3-yl)-3-oxoisoindolin-5-yl)methyl)carbamate], for which the greatest degradation seen (Dmax) in assay [1] lay within 10 to 50%. In assay [2], this compound returned a Ki of 100 to 1000 nM.

`C[C@H]1C[C@@H](COC(=O)NCc2ccc3c(c2)C(=O)N(C2CCC(=O)NC2=O)C3)C1` (stereo partly drawn) [Compound 120, ((1s,3s)-3-methylcyclobutyl)methyl ((2-(2,6-dioxopiperidin-3-yl)-3-oxoisoindolin-5-yl)methyl)carbamate] had a Dmax in assay [1] of 10 to 50%. Further, the Ki in assay [2] was in the range of 100 to 1000 nM.

As to `CCC1(CCCOC(=O)NCc2ccc3c(c2)C(=O)N(C2CCC(=O)NC2=O)C3)CC1` (stereo not drawn) [Compound 101, 3-(1-ethylcyclopropyl)propyl ((2-(2,6-dioxopiperidin-3-yl)-3-oxoisoindolin-5-yl)methyl)carbamate], the greatest degradation seen (Dmax) in assay [1] lay in the range of 10 to 50%. In assay [2], this compound showed a Ki of 100 to 1000 nM.

As for `O=C1CCC(N2Cc3c(cc(CNc4nnc(C5CC6(CCC6)C5)o4)cc3C(F)(F)F)C2=O)C(=O)N1` (stereo not drawn) [Compound 145, 3-(1-oxo-6-(((5-(spiro[3.3]heptan-2-yl)-1,3,4-oxadiazol-2-yl)amino)methyl)-4-(trifluoromethyl)isoindolin-2-yl)piperidine-2,6-dione], the “CDK2 NanoBiT Dmax (%)” value in assay [1] (HEK293 clonal line with CRISPR KI HiBiT tag on CDK2, Endurazine live cell substrate) was “B (B represents a Dmax value of >10% and ≤50%)”. In addition, in assay [2], the inhibitory constant (Ki) was 100 to 1000 nM.

Compound `COc1cc(CNC(=O)OCC2CC3(CCC3)C2)cc2c1CN(C1CCC(=O)NC1=O)C2=O` (stereo not drawn) [Compound 103, spiro[3.3]heptan-2-ylmethyl ((2-(2,6-dioxopiperidin-3-yl)-7-methoxy-3-oxoisoindolin-5-yl)methyl)carbamate] yielded a Dmax in assay [1] of 10 to 50%. Further, the Ki in assay [2] is ≤ 100 nM.

The compound `O=C1CCC(N2Cc3ccc(CNC(=O)OCCC4CC5(CCC5)C4)cc3C2=O)C(=O)N1` (stereo not drawn) [Compound 124, 2-(spiro[3.3]heptan-2-yl)ethyl ((2-(2,6-dioxopiperidin-3-yl)-3-oxoisoindolin-5-yl)methyl)carbamate] returned a Dmax in assay [1] of 10 to 50%. Moreover, in assay [2], the Ki lay within 100 to 1000 nM.

As to `CC1(C)COC1COC(=O)NCc1ccc2c(c1)C(=O)N(C1CCC(=O)NC1=O)C2` (stereo not drawn) [Compound 79, (3,3-dimethyloxetan-2-yl)methyl N-{[2-(2,6-dioxopiperidin-3-yl)-3-oxo-2,3-dihydro-1H-isoindol-5-yl]methyl}carbamate], the Dmax in assay [1] is ≤ 10%. Moreover, the Ki in assay [2] fell in the range of 100 to 1000 nM.

For `O=C1CCC(N2Cc3c(F)cc(CNC(=O)OCC4CC5(CCC5)C4)cc3C2=O)C(=O)N1` (stereo not drawn) [Compound 122, spiro[3.3]heptan-2-ylmethyl ((2-(2,6-dioxopiperidin-3-yl)-7-fluoro-3-oxoisoindolin-5-yl)methyl)carbamate], the Dmax in assay [1] lay in the range of 50 to 80%. Moreover, the Ki in assay [2] fell in the range of 100 to 1000 nM.

As for `CN(C)C(=O)N1CC(OC(=O)NCc2ccc3c(c2)C(=O)N(C2CCC(=O)NC2=O)C3)C1` (stereo not drawn) [Compound 112, 1-(dimethylcarbamoyl)azetidin-3-yl ((2-(2,6-dioxopiperidin-3-yl)-3-oxoisoindolin-5-yl)methyl)carbamate], the Dmax in assay [1] lay in the range of 10 to 50%. This compound also had a Ki in assay [2] of 100 to 1000 nM.

With `O=C1CCC(N2Cc3c(F)cc(CNc4nnc(C5CC6(CCC6)C5)o4)cc3C2=O)C(=O)N1` (stereo not drawn) [Compound 142, 3-(4-fluoro-1-oxo-6-(((5-(spiro[3.3]heptan-2-yl)-1,3,4-oxadiazol-2-yl)amino)methyl)isoindolin-2-yl)piperidine-2,6-dione], in assay [1], the Dmax lay in the range of 50 to 80%. Also, the inhibition constant Ki in assay [2] is 100 to 1000 nM.

In the case of `CC(NC(=O)OCC1CC2(CCC2)C1)c1ccc2c(c1)C(=O)N(C1CCC(=O)NC1=O)C2` (stereo not drawn) [Compound 114], in assay [1], the Dmax lay within 10 to 50%. The inhibition constant (Ki) in assay [2] is 100 to 1000 nM.

In assay [1], `O=C1CCC(N2Cc3ccc(CNC(=O)OC(C4CC4)C4CC5(CCC5)C4)cc3C2=O)C(=O)N1` (stereo not drawn) [Compound 108, cyclopropyl(spiro[3.3]heptan-2-yl)methyl ((2-(2,6-dioxopiperidin-3-yl)-3-oxoisoindolin-5-yl)methyl)carbamate] showed a maximal degradation (Dmax) of 10 to 50%. The Ki in assay [2] fell in the range of 100 to 1000 nM.

In assay [1], `Nc1c(CNc2nnc(C3CC4(CCC4)C3)o2)ccc2c1C(=O)N(C1CCC(=O)NC1=O)C2` (stereo not drawn) [Compound 144, 3-(7-amino-1-oxo-6-(((5-(spiro[3.3]heptan-2-yl)-1,3,4-oxadiazol-2-yl)amino)methyl)isoindolin-2-yl)piperidine-2,6-dione] registered a Dmax of 10 to 50%. Further, the Ki in assay [2] lay within 100 to 1000 nM.

For `O=C1CCC(N2Cc3ccc(CNC(=O)OC4CCC5(CC4)CC5)cc3C2=O)C(=O)N1` (stereo not drawn) [Compound 130, spiro[2.5]octan-6-yl ((2-(2,6-dioxopiperidin-3-yl)-3-oxoisoindolin-5-yl)methyl)carbamate], the Dmax in assay [1] lay in the range of 10 to 50%. The Ki in assay [2] lay within 100 to 1000 nM.
